# Read-outs that look alike come from different tables or passages of the source.
# Columns and labels:
# [1] = molecular target: cIAP2-BIR3 (Homo sapiens (Human), UniProt Q13489); assay: BIR binding assay (FRET competition), cIAP2 BIR3; conditions: for cIAP2 BIR3 vs BIR2 separation window: fold separation (FS) for cIAP2
# [2] = molecular target: cIAP2-BIR2 (Homo sapiens (Human), UniProt Q13489); assay: BIR binding assay (FRET competition), cIAP2 BIR2
# How it was run: (§1)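 615/665 nm FRET ratio. Compound, His-domain and 200 nM AF647-SMAC peptide incubated 60 min, then 2 nM Eu-W1024 for 30 min. Domains: cIAP1-BIR3 50 nM; XIAP-BIR3 100 nM; cIAP1-BIR2, cIAP2-BIR2 325 nM each. 15-pt 3-fold series; variable-slope IC50.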
# [3] = molecular target: cIAP1-BIR3 (Homo sapiens (Human), UniProt Q13490); assay: BIR binding assay (FRET competition), cIAP1 BIR3; conditions: for cIAP1 BIR3 vs BIR2 separation window: fold separation (FS) for cIAP1
# Sequence of cIAP1-BIR3 (Q13490 253-363): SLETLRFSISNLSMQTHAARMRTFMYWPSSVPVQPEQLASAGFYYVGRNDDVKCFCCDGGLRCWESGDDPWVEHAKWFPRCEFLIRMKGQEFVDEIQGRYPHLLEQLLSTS
# How it was run: as §1
# [4] = tested on: Jurkat HIV-luciferase clones; assay: Jurkat latency reversal assay; format: cell-based; conditions: Homo sapiens, 48 h; Jurkat latency reversal assay potency; read-out: Jurkat pEC50 (converted)
# How it was run: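 A 1:1:1 mix of three Jurkat clones (C16, 115, N6) carrying integrated luciferase-expressing HIV proviruses, 5,000 cells/well, was exposed to 3-fold, 14-point compound titrations from 10 μM at 0.5% DMSO for 48 h at 37° C. Steady-Glo luminescence was fitted by four-parameter logistic regression to give EC50 and maximal percent activation relative to vehicle.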
# [5] = molecular target: cIAP1-BIR2 (Homo sapiens (Human), UniProt Q13490); assay: BIR binding assay (FRET competition), cIAP1 BIR2
# Sequence of cIAP1-BIR2 (Q13490 173-257): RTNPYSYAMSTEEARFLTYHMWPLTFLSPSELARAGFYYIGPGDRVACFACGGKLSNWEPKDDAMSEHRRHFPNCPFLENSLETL
# How it was run: as §1
# [6] = molecular target: XIAP-BIR3 (Homo sapiens (Human), UniProt P98170); assay: BIR binding assay (FRET competition), XIAP BIR3; conditions: for XIAP BIR3 vs BIR2 separation window: fold separation (FS) for XIAP
# Sequence of XIAP-BIR3 (P98170 241-356): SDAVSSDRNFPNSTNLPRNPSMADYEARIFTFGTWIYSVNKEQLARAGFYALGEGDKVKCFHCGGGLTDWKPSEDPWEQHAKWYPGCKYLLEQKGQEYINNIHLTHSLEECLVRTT
# How it was run: as §1
# [7] = molecular target: XIAP-BIR2 (Homo sapiens (Human), UniProt P98170); assay: BIR binding assay (FRET competition), XIAP BIR2; conditions: read-out: XIAP BIR2 (pIC50) (converted)
# Sequence of XIAP-BIR2 (P98170 124-240): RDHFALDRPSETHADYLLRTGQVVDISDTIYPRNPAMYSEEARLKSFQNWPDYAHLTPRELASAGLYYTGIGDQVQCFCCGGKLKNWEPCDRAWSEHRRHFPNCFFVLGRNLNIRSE
# How it was run: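 Competitive TR-FRET used His-tagged XIAP-BIR2 (200 nM) and 200 nM AlexaFluor647-labelled AVPIAQKSE SMAC peptide in HEPES buffer pH 7.4 with CHAPS, glycerol and DTT, incubated 60 min before 30 min with 2 nM Eu-W1024. The 615/665 nm ratio from a 15-point, 3-fold series was fit with a four-parameter model for IC50/pIC50.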
# Sequence of cIAP2-BIR3 (Q13489 238-349): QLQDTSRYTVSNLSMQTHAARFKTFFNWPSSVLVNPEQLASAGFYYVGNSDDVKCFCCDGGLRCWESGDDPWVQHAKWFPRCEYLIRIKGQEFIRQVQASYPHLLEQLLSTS
# Sequence of cIAP2-BIR2 (Q13489 158-242): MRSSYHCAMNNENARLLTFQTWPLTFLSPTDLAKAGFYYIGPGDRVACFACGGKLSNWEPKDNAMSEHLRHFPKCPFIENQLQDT
SMILES,IC50 [1],cIAP2 BIR3 vs BIR2 separation window [1],IC50 [2],IC50 [3],cIAP1 BIR3 vs BIR2 separation window [3],EC50 [4],IC50 [5],IC50 [6],XIAP BIR3 vs BIR2 separation window [6],IC50 ([7]; FRET competition),IC50 ([7]; FRET competition binding)
"C[C@@H]1CN(CC(=O)N2CC(C)(C)c3[nH]c(=O)c(Oc4ccccc4)cc32)[C@@H](CN2CCO[C@H](C(=O)NCc3ccc(CNC(=O)[C@@H]4CN(C[C@H]5CN[C@H](C)CN5CC(=O)N5CC(C)(C)c6[nH]c(=O)c(Oc7ccccc7)cc65)CCO4)cc3)C2)CN1 [Compound 185, (2S,2′S)-N,N′-(1,4-phenylenebis(methylene)) bis(4-(((2R,5R)-1-(2-(3,3-dimethyl-5-oxo-6-phenoxy-2,3,4,5-tetrahydro-1H-pyrrolo[3,2-b]pyridin-1-yl)-2-oxoethyl)-5-methylpiperazin-2-yl)methyl)morpholine-2-carboxamide)]",0.00138 to 0.00794 µM,"++++ (FS>10,000)",10 to 51.3 µM,0.0158 to 0.0316 µM,"+++ (10,000>FS>1,000)",0.316 to 3.31 µM,3.16 to 10 µM,0.0316 to 0.501 µM,"+++ (10,000>FS>1,000)",10 to 51.3 µM,–
"C[C@@H]1CN(CC(=O)N2CC(C)(C)c3[nH]c(=O)c(Cc4ccccc4)cc32)[C@@H](CN2CCO[C@H](C(=O)NCc3ccc(CNC(=O)[C@@H]4CN(C[C@H]5CN[C@H](C)CN5CC(=O)N5CC(C)(C)c6[nH]c(=O)c(Cc7ccccc7)cc65)CCO4)cc3)C2)CN1 [Compound 186, (2S,2′S)-N,N′-(1,4-phenylenebis(methylene)) bis(4-(((2R,5R)-1-(2-(6-benzyl-3,3-dimethyl-5-oxo-2,3,4,5-tetrahydro-1H-pyrrolo[3,2-b]pyridin-1-yl)-2-oxoethyl)-5-methylpiperazin-2-yl)methyl)morpholine-2-carboxamide)]",0.00138 to 0.00794 µM,"+++ (10,000>FS>1,000)",1 to 3.16 µM,0.00794 to 0.0158 µM,"++ (1,000>FS>100)",0.0126 to 0.0631 µM,0.0224 to 1 µM,0.0158 to 0.0316 µM,"++++ (FS>10,000)",10 to 51.3 µM,–
C[C@@H]1CN(CC(=O)N2CC(C)(C)c3[nH]c(=O)c(Cc4ccc(F)cc4F)cc32)[C@@H](CN2CCO[C@H](COc3cccc(OC[C@@H]4CN(C[C@H]5CN[C@H](C)CN5CC(=O)N5CC(C)(C)c6[nH]c(=O)c(Cc7ccc(F)cc7F)cc65)CCO4)c3)C2)CN1 [Compound 190],0.0158 to 0.0316 µM,"+++ (10,000>FS>1,000)",3.16 to 10 µM,0.0158 to 0.0316 µM,"+++ (10,000>FS>1,000)",0.00049 to 0.0126 µM,3.16 to 10 µM,0.0158 to 0.0316 µM,"++++ (FS>10,000)",10 to 51.3 µM,–
"C[C@@H]1CN(CC(=O)N2CC(C)(C)c3[nH]c(=O)c(Cc4ccc(F)cc4)cc32)[C@@H](CN2CCN(C(=O)CCCCCCCCC(=O)N3CCN(C[C@H]4CN[C@H](C)CN4CC(=O)N4CC(C)(C)c5[nH]c(=O)c(Cc6ccc(F)cc6)cc54)[C@H](C)C3)C[C@H]2C)CN1 [Example 3, 1,10-bis((R)-4-(((2R,5R)-1-(2-(6-(4-fluorobenzyl)-3,3-dimethyl-5-oxo-2,3,4,5-tetrahydro-1H-pyrrolo[3,2-b]pyridin-1-yl)-2-oxoethyl)-5-methylpiperazin-2-yl)methyl)-3-methylpiperazin-1-yl)decane-1,10-dione]",0.0158 to 0.0316 µM,"++ (1,000>FS>100)",1 to 3.16 µM,0.00794 to 0.0158 µM,"++ (1,000>FS>100)",0.0126 to 0.0631 µM,0.0224 to 1 µM,0.0316 to 0.501 µM,"+++ (10,000>FS>1,000)",–,10 to 51.3 µM
"C[C@@H]1CN(CC(=O)N2CC(C)(C)c3[nH]c(=O)c(Cc4ccc(F)cc4)cc32)[C@@H](CN2CCN(C(=O)COCCOCC(=O)N3CCN(C[C@H]4CN[C@H](C)CN4CC(=O)N4CC(C)(C)c5[nH]c(=O)c(Cc6ccc(F)cc6)cc54)[C@H](C)C3)C[C@H]2C)CN1 [Example 5, 1,1′-(2,2′-((3R,3′R,6R,6′R)-(((2R,2′R)-(2,2′-(ethane-1,2-diylbis(oxy))bis(acetyl))bis(2-methylpiperazine-4,1-diyl))bis(methylene))bis(3-methylpiperazine-6,1-diyl))bis(acetyl))bis(6-(4-fluorobenzyl)-3,3-dimethyl-1,2,3,4-tetrahydro-5H-pyrrolo[3,2-b]pyridin-5-one)]",0.0158 to 0.0316 µM,"++ (1,000>FS>100)",1 to 3.16 µM,0.0316 to 0.501 µM,"++ (1,000>FS>100)",0.0631 to 0.316 µM,3.16 to 10 µM,0.0316 to 0.501 µM,"++++ (FS>10,000)",–,10 to 51.3 µM
"C[C@@H]1CN(CC(=O)N2CC(C)(C)c3[nH]c(=O)c(Cc4ccc(F)cc4)cc32)[C@@H](CN2CCN(C(=O)Cc3ccccc3CC(=O)N3CCN(C[C@H]4CN[C@H](C)CN4CC(=O)N4CC(C)(C)c5[nH]c(=O)c(Cc6ccc(F)cc6)cc54)[C@H](C)C3)C[C@H]2C)CN1 [Example 7, 1,1′-(2,2′-((3R,3′R,6R,6′R)-(((2R,2′R)-(2,2′-(1,2-phenylene)bis(acetyl))bis(2-methylpiperazine-4,1-diyl))bis(methylene))bis(3-methylpiperazine-6,1-diyl))bis(acetyl))bis(6-(4-fluorobenzyl)-3,3-dimethyl-1,2,3,4-tetrahydro-5H-pyrrolo[3,2-b]pyridin-5-one)]",0.0158 to 0.0316 µM,–,0.0224 to 1 µM,0.0158 to 0.0316 µM,–,0.0631 to 0.316 µM,0.0224 to 1 µM,0.0158 to 0.0316 µM,–,–,1 to 3.16 µM
"C[C@@H]1CN(CC(=O)N2CC(C)(C)c3[nH]c(=O)c(Cc4ccc(F)cc4)cc32)[C@@H](CN2CCN(C(=O)COc3cccc(OCC(=O)N4CCN(C[C@H]5CN[C@H](C)CN5CC(=O)N5CC(C)(C)c6[nH]c(=O)c(Cc7ccc(F)cc7)cc65)[C@H](C)C4)c3)C[C@H]2C)CN1 [Example 11, 1,1′-(2,2′-((3R,3′R,6R,6′R)-(((2R,2′R)-(2,2′-(1,3-phenylenebis(oxy))bis(acetyl))bis(2-methylpiperazine-4,1-diyl))bis(methylene))bis(3-methylpiperazine-6,1-diyl))bis(acetyl))bis(6-(4-fluorobenzyl)-3,3-dimethyl-1,2,3,4-tetrahydro-5H-pyrrolo[3,2-b]pyridin-5-one)]",0.0158 to 0.0316 µM,"++ (1,000>FS>100)",1 to 3.16 µM,0.0158 to 0.0316 µM,"++ (1,000>FS>100)",0.0631 to 0.316 µM,1 to 3.16 µM,0.0316 to 0.501 µM,"++++ (FS>10,000)",–,10 to 51.3 µM
"C[C@@H]1CN(CC(=O)N2CC(C)(C)c3[nH]c(=O)c(Cc4ccc(F)cc4)cc32)[C@@H](CN2CCN(C(=O)CN(C)CC(=O)N3CCN(C[C@H]4CN[C@H](C)CN4CC(=O)N4CC(C)(C)c5[nH]c(=O)c(Cc6ccc(F)cc6)cc54)[C@H](C)C3)C[C@H]2C)CN1 [Example 15, 1,1′-(2,2′-((3R,3′R,6R,6′R)-(((2R,2′R)-(2,2′-(methylazanediyl)bis(acetyl))bis(2-methylpiperazine-4,1-diyl))bis(methylene))bis(3-methylpiperazine-6,1-diyl))bis(acetyl))bis(6-(4-fluorobenzyl)-3,3-dimethyl-1,2,3,4-tetrahydro-5H-pyrrolo[3,2-b]pyridin-5-one)]",0.00138 to 0.00794 µM,–,0.0224 to 1 µM,0.00138 to 0.00794 µM,–,0.0631 to 0.316 µM,0.0224 to 1 µM,0.00138 to 0.00794 µM,–,–,10 to 51.3 µM
"C[C@@H]1CN(CC(=O)N2CC(C)(C)c3[nH]c(=O)c(Cc4ccc(F)cc4)cc32)[C@@H](CN2CCN(C(=O)c3cccnc3-c3ncccc3C(=O)N3CCN(C[C@H]4CN[C@H](C)CN4CC(=O)N4CC(C)(C)c5[nH]c(=O)c(Cc6ccc(F)cc6)cc54)[C@H](C)C3)C[C@H]2C)CN1 [Example 17, 1,1′-(2,2′-((3R,3′R,6R,6′R)-(((2R,2′R)-([2,2′-bipyridine]-3,3′-dicarbonyl)bis(2-methylpiperazine-4,1-diyl))bis(methylene))bis(3-methylpiperazine-6,1-diyl))bis(acetyl))bis(6-(4-fluorobenzyl)-3,3-dimethyl-1,2,3,4-tetrahydro-5H-pyrrolo[3,2-b]pyridin-5-one)]",0.00138 to 0.00794 µM,"++ (1,000>FS>100)",0.0224 to 1 µM,0.00138 to 0.00794 µM,"++ (1,000>FS>100)",0.316 to 3.31 µM,0.0224 to 1 µM,0.00138 to 0.00794 µM,"++++ (FS>10,000)",–,10 to 51.3 µM

# — patent publication US20250326771A1, “PIPERAZINE DERIVATIVES USEFUL IN HIV THERAPY” (VIIV HEALTHCARE COMPANY, priority 2022, published 2025)
